Here are results for two molecules from publication PMC9304322, “Targeting retinoic acid receptor alpha-corepressor interaction activates chaperone-mediated autophagy and protects against retinal degeneration” (Nature Communications, 2022).

In the assay the target is T1, RARα and the N-CoR1 peptide (Homo sapiens, UniProt P10276).
T1 construct: human RARα (residues 176-421); His6-SUMO (N, cleaved yes); made in house; host or cells: Escherichia coli BL21(DE3) RIL
The assay can be described thus: Fluorescence polarization binding assay, RARα LBD and FITC-N-CoR1 peptide. The conditions noted are these: 10 μΜ compound. How it is done: The ligand binding domain (LBD) of the human RARα (residues 176-421) was fused to a preceding His6-SUMO tag separated by a ubiquitin-like protease (ULP1) cleavage site and was expressed in Escherichia coli BL21(DE3) RIL cell strain. Cells were grown at 37 °C in LB medium supplemented with 50 µg/mL kanamycin until OD600 reached about 0.8. Expression of T7 polymerase was induced by addition of isopropyl-b-d-thiogalactoside (IPTG, #10724815001) to a final concentration of 0.8 mM and cells were incubated at 20 °C overnight. Cell cultures were harvested by centrifugation at 8,000 × g for 15 mins. The cell pellet from 1 liter of LB growth was resuspended in 50 mL lysis buffer (20 mM Tris-HCl pH 8, 500 mM NaCl, 25 mM imidazole) supplemented with one complete™, EDTA-free protease inhibitor tablet (Roche Applied Science, #11873580001). The suspension was lysed using a high pressure homogenizer and centrifuged at 35,000 × g at 4 °C for 45 minutes. […]
The fluorescein-tagged peptide of N-CoR1, FITC-Ahx-[…] […] Fluorescence polarization assays (FPA) were performed using established procedures. […] Fluorescence polarization was measured at 30 min on a F200 PRO microplate reader (TECAN) with the excitation wavelength set at 470 nm and emission measured at 530 nm. EC50 values were calculated by nonlinear regression analysis of competitive binding curves using GraphPad Prism software.

T1 sequence (P10276 176-421, other chains not shown): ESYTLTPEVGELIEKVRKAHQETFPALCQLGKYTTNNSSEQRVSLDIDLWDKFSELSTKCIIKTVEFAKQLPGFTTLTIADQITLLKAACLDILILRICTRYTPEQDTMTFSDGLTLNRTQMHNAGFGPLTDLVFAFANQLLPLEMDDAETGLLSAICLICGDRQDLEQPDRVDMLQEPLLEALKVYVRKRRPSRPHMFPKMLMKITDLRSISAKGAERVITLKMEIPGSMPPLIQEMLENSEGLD

For `Clc1ccc2c(c1)OCC(c1ccc(-c3ccccc3)cc1)=N2` [CA39], the “N-CoR1 peptide binding to RARα in fluorescence polarization assays” value is listed as “enhanced N-CoR1 peptide binding to RARα”.

`CC(=O)Nc1ccc(C2=Nc3ccc(Cl)cc3OC2)cc1` [CA77]: the “N-CoR1 peptide binding to RARα in fluorescence polarization assays” value was “enhanced N-CoR1 peptide binding to RARα”.
